Source: patent US8518946B2, “Salts of (R)-7-[3-amino-4-(2,4,5-trifluorophenyl)butanoyl]-3-trifluoromethyl-5,6,7,8-tetrahydroimidazo[1,5-a] pyrazine-1-carboxylic acid, preparation method and medical use thereof” (Jiangsu Hengrui Medicine Co., Ltd., priority 2009, dated 2013)
Values after ≈ are worked out from the molar mass of the structure shown. Where two headings read alike, the source gives them in different places.

Legend:
[1] = Solubility experiment in four systems; type: physicochemical
Protocol: According to the conventional solubility measurement, the solubility of the test samples were determined in four different systems: phosphate buffer solution (PBS, pH=7.4), methanol, 0.1% hydrochloric acid and water.

[2] = biological target: T1, DPP-IX (Homo sapiens, UniProt Q86TI2); assay: DPP-IX inhibition, Promega DPPIV-Glo Protease Assay; type: biochemical; conditions: read-out: IC50 DPP9
T1 construct: purchased Bioscience 80090
T1 sequence (Q86TI2 whole entry): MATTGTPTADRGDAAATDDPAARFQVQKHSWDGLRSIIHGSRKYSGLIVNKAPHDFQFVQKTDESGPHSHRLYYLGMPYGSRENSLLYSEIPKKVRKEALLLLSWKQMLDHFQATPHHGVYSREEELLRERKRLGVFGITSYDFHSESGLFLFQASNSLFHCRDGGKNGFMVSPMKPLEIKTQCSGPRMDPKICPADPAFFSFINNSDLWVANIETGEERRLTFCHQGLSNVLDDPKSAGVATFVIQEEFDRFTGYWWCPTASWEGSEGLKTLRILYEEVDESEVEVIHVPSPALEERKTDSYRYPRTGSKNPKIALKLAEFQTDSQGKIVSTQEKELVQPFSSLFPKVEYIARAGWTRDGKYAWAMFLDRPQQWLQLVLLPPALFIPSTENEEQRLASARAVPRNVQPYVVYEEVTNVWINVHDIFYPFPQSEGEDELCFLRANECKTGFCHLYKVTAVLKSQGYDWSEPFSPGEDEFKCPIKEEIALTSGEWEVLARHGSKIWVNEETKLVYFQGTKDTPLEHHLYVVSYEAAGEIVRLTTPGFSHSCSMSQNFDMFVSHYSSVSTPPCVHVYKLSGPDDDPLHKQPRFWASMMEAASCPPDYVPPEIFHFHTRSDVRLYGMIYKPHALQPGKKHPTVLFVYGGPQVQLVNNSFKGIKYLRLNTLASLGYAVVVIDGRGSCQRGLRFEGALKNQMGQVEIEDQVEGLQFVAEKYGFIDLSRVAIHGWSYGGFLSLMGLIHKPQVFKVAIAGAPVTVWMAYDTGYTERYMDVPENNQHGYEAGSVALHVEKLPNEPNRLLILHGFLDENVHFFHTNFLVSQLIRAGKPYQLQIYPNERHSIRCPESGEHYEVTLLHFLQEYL
Protocol: (§1) The compounds of the present invention were tested to determine their DPP-IV, DPP-VIII, DPP-IX inhibition activity according to the following methods. The half inhibition concentrations IC50 (the concentration of the test compound showing 50% inhibition to the enzyme activity) of each compound were determined by reaction test and calculation of the mixture of fixed amounts of enzyme and substrate with several different concentrations of the test compounds.
(§2) The compounds of the present invention were tested to determine the DPP-IV, DPP-VIII, DPP-IX inhibition activity in the following tests using Promega DPPIV-Glo™ Protease Assay (Cat No. G8350/G8351) Kit, wherein:
c. DPP-IX enzyme bought from Bioscience, Catalog no. 80090.
(§3) The preparation procedure of the conventional reagent such as DPPIV-Glo buffer, luciferin reagents needed in the test and the detail operation of the test can refer to the specifications of the kits. The assay was carried out as following steps:
(§4) The tested compounds were dissolved in DMSO to prepare a series of different concentrations of the test compound solution. DPPIV-Glo buffer and the freezing luciferin detection reagent were equilibrated to room temperature. The luciferin detection reagent was dissolved in moderate buffer in a brown flask to form a solution. Then DPP-IV-Glo. was dissolved in ultrapure water to give the appropriate concentration. The substrate solution and the luciferin detection reagent solution were mixed sufficiently in an appropriate ratio (the ratio of the invention is 1:49), and the mixture was layed at room temperature for 30-60 minutes. Tris buffer (2 mM, pH 8.0), the test compounds and DPP-IV (DPP-VIII or DPP-IX) were mixed and then transferred to a 96-well plate. Each test contains double-well of three-well control. The same volume of DMSO was added to the negative control and blank control. Then the 96-well plate was added with mixed solution of luciferin detection reagent and substrate to initiate the reaction. The 96-wells plate was incubated at room temperature on a plate shaker for 40 minutes after sealed. The strength of the fluorescent signal in each well was determined by microplate reader and the inhibition rate to the enzyme of the compound at this concentration was calculated by the formula as following: inhibitory rate: IR=[1−(S−B)/(N−B)]*100% • S: value of the sample • B: value of the blank control • N: value of the negative control
(§5) IC50 of the test compounds can be calculated by the inhibition rate at different concentration.

[3] = biological target: T2, DPP-IV (Homo sapiens, UniProt P27487); assay: DPP-IV inhibition, Promega DPPIV-Glo Protease Assay; type: biochemical
T2 construct: purchased Calbiochem 317630
T2 sequence (P27487 whole entry): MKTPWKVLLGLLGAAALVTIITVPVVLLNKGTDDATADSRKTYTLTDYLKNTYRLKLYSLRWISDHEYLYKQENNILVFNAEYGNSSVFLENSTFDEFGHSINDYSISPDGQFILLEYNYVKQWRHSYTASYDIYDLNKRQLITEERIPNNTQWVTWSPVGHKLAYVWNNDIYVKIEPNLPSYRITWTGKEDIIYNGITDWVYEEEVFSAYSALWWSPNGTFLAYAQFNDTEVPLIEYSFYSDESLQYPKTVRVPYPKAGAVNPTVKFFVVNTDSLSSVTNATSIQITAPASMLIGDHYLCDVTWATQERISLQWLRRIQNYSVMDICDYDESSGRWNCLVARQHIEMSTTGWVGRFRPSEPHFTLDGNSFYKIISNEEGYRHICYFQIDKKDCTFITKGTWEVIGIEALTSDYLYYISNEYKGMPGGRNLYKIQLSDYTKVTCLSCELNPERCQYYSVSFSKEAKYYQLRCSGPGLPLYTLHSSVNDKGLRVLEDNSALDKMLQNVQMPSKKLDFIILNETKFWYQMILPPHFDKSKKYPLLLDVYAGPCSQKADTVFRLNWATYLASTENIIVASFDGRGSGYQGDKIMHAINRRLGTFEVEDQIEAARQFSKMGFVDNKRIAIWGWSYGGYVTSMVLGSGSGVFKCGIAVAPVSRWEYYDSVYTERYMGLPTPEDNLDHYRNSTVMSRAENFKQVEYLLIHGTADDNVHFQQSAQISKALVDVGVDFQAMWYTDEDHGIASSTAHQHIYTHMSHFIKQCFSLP
Protocol: as §1, §2
a. DPP-IV enzyme bought from Calbiochem, Catalog no. 317630;
as §3, §4, §5

[4] = biological target: T3, DPP-VIII (Homo sapiens, UniProt Q6V1X1); assay: DPP-VIII inhibition, Promega DPPIV-Glo Protease Assay; type: biochemical; conditions: read-out: IC50 DPP8
T3 construct: purchased Bioscience 80080
T3 sequence (Q6V1X1 whole entry): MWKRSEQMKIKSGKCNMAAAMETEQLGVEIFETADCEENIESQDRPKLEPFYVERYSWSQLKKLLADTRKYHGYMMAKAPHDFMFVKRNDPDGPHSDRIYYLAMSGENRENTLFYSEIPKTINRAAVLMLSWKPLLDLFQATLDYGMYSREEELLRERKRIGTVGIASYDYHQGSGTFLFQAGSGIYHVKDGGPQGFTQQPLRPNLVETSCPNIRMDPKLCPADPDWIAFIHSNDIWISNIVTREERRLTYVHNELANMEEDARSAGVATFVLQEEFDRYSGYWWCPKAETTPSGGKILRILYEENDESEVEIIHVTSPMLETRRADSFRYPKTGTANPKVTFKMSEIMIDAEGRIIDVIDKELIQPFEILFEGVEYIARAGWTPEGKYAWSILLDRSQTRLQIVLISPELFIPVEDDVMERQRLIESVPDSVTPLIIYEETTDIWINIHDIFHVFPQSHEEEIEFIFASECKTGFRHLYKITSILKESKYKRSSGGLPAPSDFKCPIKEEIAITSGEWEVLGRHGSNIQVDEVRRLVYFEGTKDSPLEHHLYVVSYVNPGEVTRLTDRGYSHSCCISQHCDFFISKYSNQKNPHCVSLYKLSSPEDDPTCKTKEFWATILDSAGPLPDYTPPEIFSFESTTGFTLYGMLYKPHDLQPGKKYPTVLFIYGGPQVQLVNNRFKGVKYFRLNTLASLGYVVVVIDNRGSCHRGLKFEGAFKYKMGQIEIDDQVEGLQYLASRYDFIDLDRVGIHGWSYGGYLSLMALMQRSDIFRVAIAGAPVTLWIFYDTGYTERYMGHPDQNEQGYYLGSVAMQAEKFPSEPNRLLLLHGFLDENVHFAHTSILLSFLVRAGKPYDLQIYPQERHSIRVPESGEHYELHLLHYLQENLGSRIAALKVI
Protocol: as §1, §2
b. DPP-VIII enzyme bought from Bioscience, Catalog no. 80080;
as §3, §4, §5

[5] = Pharmacokinetics assay in rats (LC/MS/MS plasma concentration); type: in vivo, SD rats; conditions: for F: intragastric 3.0 mg/kg (as free base), absolute bioavailability from AUC0-t vs vein injection
Source text: The compound of Example 3 was administrated intragastrically or tail vein injection to rats and the compounds of Example 1-4, Example 9 and Example 11-12 were administrated intragastrically to determine the drug concentration in plasma at different time points by LC/MS/MS measurement. The pharmacokinetics of the compounds of the present invention was studied and evaluated in rats. And the oral absolute bioavailability was investigated.
Compounds of Example 1-4, Example 9 and Example 11-12.
[…] healthy adult SD rats, male and female in half, were purchased from SINO-BRITSH SIPPR/BK LAB.ANIMAL LTD., CO, License number: SCXK (Shanghai) 2008-0016.
Vein injection group: the proper weighed test compound was dissolved in 0.5 mL of DMSO by ultrasound and then diluted with normal saline to 15 mL to form a 0.3 mg/mL solution.
Intragastrically administered group: the proper weighed test compound was dissolved in 0.5% CMC-Na by ultrasound to form a 0.3 mg/mL of suspension.
32 healthy adult SD rats, male and female in half, were divided into 8 groups so that each group consisted 4 rats. After an overnight fast, the rats were tail vein injected of the compound of Example 3 and intragastrically administered the compound of Example 3 and the salt thereof, at a dose of 3.0 mg/kg (calculated as the free base form) and a volume of 10 mL/kg.
Blood samples (0.2 mL) of the rats in vein injection group were taken from eye socket at pre administration and at 2, 15, 30 minutes and 1.0, 2.0, 4.0, 6.0, 8.0, 12.0, 24.0 hours post administration, which were stored in heparinized tubes and centrifuged for 10 minutes at 3,500 rpm. The plasma samples were stored at −20° C. until analysis. The rats were fed 2 hours after administration.
Blood samples of the rats in intragastrically administered group were taken at pre administration and at 0.5, 1.0, 2.0, 3.0, 4.0, 6.0, 8.0, 12.0, 24.0 hours post administration. The samples were treated with the same method as mentioned above.
50 μL of internal standard solution and 150 μL of methanol were added to 50 μL of rat plasma obtained at various time points after administration. Then the mixture was mixed for 3 minutes using a vortexer and centrifuged for 10 minutes at 13,500 rpm. 10 μL of the supernatant was analyzed by LC/MS/MS.
The compartmental model of pharmacokinetics was fitted for the test compounds and the major pharmacokinetic parameters were calculated by DAS 2.0 software in which Cmax and tmax were the actually measured values. The absolute bioavailability was calculated by AUC0-t taken from post administration and vein injection.

[6] = tested on: normal ICR mice; assay: Hypoglycemic effect, oral glucose tolerance in normal ICR mice; type: in vivo; conditions: 10 mg/kg by gavage, glucose 4 g/kg 15 minutes after administration, 10 mg/kg
Protocol: To observe the effects on oral glucose tolerance of the compounds of Example 1-4 and Example 8-12 in normal ICR mice (SINO-BRITSH SIPPR/BK LAB.ANIMAL LTD., CO), the hypoglycemic effects in vivo have been evaluated using blood-glucose meter to measure and analyze the sugar content of the samples at different time points during 2 hours. The samples were taken from the mouse's tail.
The administration dose was 10 mg/kg, and the blank was administered with water. Both groups contained 5% DMSO.
The mice were administered by gavage. 4 g/kg of 10% glucose solution was administered (0.8 mL to each mice) 15 minutes after administration.
The mice were administered according to above dose (the blank group was administrated with 5% DMSO aqueous solution) and the blood sugar value was measured (−15 minutes).
15 minutes after administration, the mice were administered of 4 g/kg of 20% glucose solution and the values of blood sugar were tested by Roche ACCU-CHEK at 0, 15, 30, 45, 60, 120 minutes.

[7] = intragastric 3.0 mg/kg, phosphate

Row | SMILES | IC50 [2] [µM] | IC50 [3] [µM] | IC50 [4] [µM] | Solubility Value, 0.1% HCl ([1]; 0.1% hydrochloric acid) [mg/mL] | Solubility Value, PBS (pH 7.4) ([1]; PBS pH 7.4) [mg/mL] | Solubility Value, methanol ([1]; methanol) [mg/mL] | Solubility Value, water ([1]; water) [mg/mL] | Hypoglycemic rate of blood sugar of 30 minutes after administration [6] [%] | further results
1 | N[C@@H](CC(=O)N1CCn2c(C(F)(F)F)nc(C(=O)O)c2C1)Cc1cc(F)c(F)cc1F [Example 2, (R)-7-[3-Amino-4-(2,4,5-trifluorophenyl)butanoyl]-3-trifluoromethyl-5,6,7,8-tetrahydro-imidazo[1,5-a]pyrazine-1-carboxylic acid phosphate] | 185 | 0.015 | 400 | – | – | – | – | – | Solubility Value, 0.1% HCl ([1]; 0.1% hydrochloric acid, phosphate): 32.5 mg/mL; Solubility Value, PBS (pH 7.4) ([1]; PBS pH 7.4, phosphate): 20.2 mg/mL; Solubility Value, methanol ([1]; methanol, phosphate): 37.5 mg/mL; Solubility Value, water ([1]; water, phosphate): 26.1 mg/mL; pharmacokinetics and bioavailability (conclusion in words) ([5]; compared with other compounds): improved obviously; F ([5]; phosphate): 8.63%; AUC(0-t) [5, 7]: 198.1 ± 57.4 ng·h/mL; CL/F [5, 7]: 270 ± 75.8 mL/min/kg; Cmax [5, 7]: 66.6 ± 36.4 ng/mL; MRT [5, 7]: 4.05 ± 3.66 h; Tmax [5, 7]: 0.92 ± 0.58 h; t1/2 [5, 7]: 1.69 ± 1.24 h; Hypoglycemic rate of blood sugar of 30 minutes after administration ([6]; phosphate): 29.96%
2 | N[C@@H](CC(=O)N1CCn2c(C(F)(F)F)nc(C(=O)O)c2C1)Cc1cc(F)c(F)cc1F [Example 3, (R)-7-[3-Amino-4-(2,4,5-trifluorophenyl)butanoyl]-3-trifluoromethyl-5,6,7,8-tetrahydro-imidazo[1,5-a]pyrazine-1-carboxylic acid] | 125 | 0.013 | 236 | 20.5 (≈ 45.5 mM) | 7.0 | 32.7 (≈ 72.6 mM) | 9.2 (≈ 20.4 mM) | 25.60 | half-life ([5]; both sexes, SD, rat, plasma, iv, 3 mg/kg, tail vein injection 3.0 mg/kg): 2.35 ± 1.9 h; AUC(0-t) ([5]; both sexes, SD, rat, plasma, iv, 3 mg/kg, tail vein injection 3.0 mg/kg, read-out: AUC0-t): 2300 ± 353 ng·h/mL; MRT ([5]; both sexes, SD, rat, plasma, iv, 3 mg/kg, tail vein injection 3.0 mg/kg, read-out: MRT): 0.22 ± 0.06 h; AUC(0-t) ([5]; intragastric 3.0 mg/kg): 58.3 ± 17.3 ng·h/mL; CL/F ([5]; intragastric 3.0 mg/kg): 862 ± 267 mL/min/kg; Cmax ([5]; intragastric 3.0 mg/kg): 13.4 ± 5.6 ng/mL; MRT ([5]; intragastric 3.0 mg/kg): 4.45 ± 1.01 h; Tmax ([5]; intragastric 3.0 mg/kg): 1.00 ± 0.00 h; t1/2 ([5]; intragastric 3.0 mg/kg): 2.73 ± 0.73 h; F [5]: 2.54%; CL/F ([5]; tail vein injection 3.0 mg/kg): 22.2 ± 3.33 mL/min/kg
3 | N[C@@H](CC(=O)N1CCn2c(C(F)(F)F)nc(C(=O)[O-])c2C1)Cc1cc(F)c(F)cc1F.[Li+] [Example 5, Lithium (R)-7-[3-amino-4-(2,4,5-trifluorophenyl)butanoyl]-3-trifluoromethyl-5,6,7,8-tetrahydro-imidazo[1,5-a]pyrazine-1-carboxylate] | 50.6 | 0.025 | 80.5 | – | – | – | – | – | solubility ([1]; 0.1% hydrochloric acid, simulated gastric fluid, 0.1% hydrochloric acid, read-out: Solubility Value, 0.1% HCl): 101 mg/mL; solubility ([1]; methanol, organic solvent or mixture, methanol, read-out: Solubility Value, methanol): 50.3 mg/mL; solubility ([1]; phosphate buffer solution (PBS), pH 7.4, aqueous buffer, PBS pH 7.4, read-out: Solubility Value, PBS (pH 7.4)): 60.5 mg/mL; solubility ([1]; water, read-out: Solubility Value, water): 40.2 mg/mL

The next lines start with results.

Row | IC50 [2] [µM] | IC50 [3] [µM] | IC50 [4] [µM] | Solubility Value, 0.1% HCl ([1]; 0.1% hydrochloric acid) [mg/mL] | Solubility Value, PBS (pH 7.4) ([1]; PBS pH 7.4) [mg/mL] | Solubility Value, methanol ([1]; methanol) [mg/mL] | Solubility Value, water ([1]; water) [mg/mL] | SMILES | Hypoglycemic rate of blood sugar of 30 minutes after administration [6] [%] | further results
4 | 136 | – | 152 | 8.3 | 0.2 | 20.1 | 0.5 | N[C@@H](CC(=O)N1CCn2c(C(F)(F)F)nc(C(=O)O)c2C1)Cc1cc(F)c(F)cc1F [Example 8, Triethylammonium (R)-7-[3-amino-4-(2,4,5-trifluorophenyl)butanoyl]-3-(trifluoromethyl)-5,6,7,8-tetrahydro-imidazo[1,5-a]pyrazine-1-carboxylate] | 19.82 | –
5 | 166 | 0.023 | 210 | 15.2 | 1.2 | 40.3 | 1.5 | N[C@@H](CC(=O)N1CCn2c(C(F)(F)F)nc(C(=O)O)c2C1)Cc1cc(F)c(F)cc1F [Example 10, 2-Hydroxyethyl(trimethyl)ammonium (R)-7-[3-Amino-4-(2,4,5-trifluorophenyl)-butanoyl]-3-trifluoromethyl-5,6,7,8-tetrahydro-imidazo[1,5-a]pyrazine-1-carboxylate] | 20.92 | –
